Tests used:
Test in all cases: MIC susceptibility profiling, efflux platform
Type in all cases: cell-based, Escherichia coli
EKO-35 araC::acrBD408A = details: for Fold change of MICs: EKO-35 araC::acrBD408A compared to EKO-35; for MIC: Escherichia coli, read-out: Minimum Inhibitory Concentration, EKO-35 araC::acrBD408A; for MIC / Minimum Inhibitory Concentration, EKO-35 araC::acrBD408A: Table 13B, non-porinated, technical duplicate
In short: (§1)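 Overnight LB cultures resuspended in PBS to OD600 ~1.0, diluted 1/2000 into MHB II, and added to 2-fold serial compound dilutions in duplicate with DMSO controls. Incubated 18 h at 37° C. with 900 rpm shaking; OD600 read before and after, background subtracted, to derive MIC.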

EKO-35 araC::acrB = details: for Fold change of MICs: EKO-35 araC::acrB compared to EKO-35; for MIC: Escherichia coli, read-out: Minimum Inhibitory Concentration, EKO-35 araC::acrB; for MIC / Minimum Inhibitory Concentration, EKO-35 araC::acrB: Table 13A, non-porinated, technical duplicate
In short: as §1

EKO-35 araC::acrD = details: for Fold change of MICs: EKO-35 araC::acrD compared to EKO-35; for MIC: Escherichia coli, read-out: Minimum Inhibitory Concentration, EKO-35 araC::acrD; for MIC / Minimum Inhibitory Concentration, EKO-35 araC::acrD: Table 13A, non-porinated, technical duplicate
In short: as §1

EKO-35 araC::emrKY = details: for Fold change of MICs: EKO-35 araC::emrKY compared to EKO-35; for MIC: Escherichia coli, read-out: Minimum Inhibitory Concentration, EKO-35 araC::emrKY; for MIC / Minimum Inhibitory Concentration, EKO-35 araC::emrKY: Table 13B, non-porinated, technical duplicate
In short: as §1

EKO-35 araC::mdtBC = details: for Fold change of MICs: EKO-35 araC::mdtBC compared to EKO-35; for MIC: Escherichia coli, read-out: Minimum Inhibitory Concentration, EKO-35 araC::mdtBC; for MIC / Minimum Inhibitory Concentration, EKO-35 araC::mdtBC: Table 13B, non-porinated, technical duplicate
In short: as §1

EKO-35 araC::mdtEF = details: for Fold change of MICs: EKO-35 araC::mdtEF compared to EKO-35; for MIC: Escherichia coli, read-out: Minimum Inhibitory Concentration, EKO-35 araC::mdtEF; for MIC / Minimum Inhibitory Concentration, EKO-35 araC::mdtEF: Table 13A, non-porinated, technical duplicate
In short: as §1

[1] = tested on: EKO-35 araC::mexCD (MexCD from P. aeruginosa); details: for Fold change of MICs: EKO-35 araC::mexCD compared to EKO-35; for MIC / Minimum Inhibitory Concentration, EKO-35 araC::mexCD: Table 13B, non-porinated, technical duplicate; for MIC: read-out: Minimum Inhibitory Concentration, EKO-35 araC::mexCD
In short: as §1

Compound	Fold change of MICs (EKO-35 araC::acrBD408A)	MIC (EKO-35 araC::acrBD408A)	Fold change of MICs (EKO-35 araC::acrB)	MIC (EKO-35 araC::acrB)	Fold change of MICs (EKO-35 araC::acrD)	MIC (EKO-35 araC::acrD)	Fold change of MICs (EKO-35 araC::emrKY)	MIC (EKO-35 araC::emrKY)	Fold change of MICs (EKO-35 araC::mdtBC)	MIC (EKO-35 araC::mdtBC)	Fold change of MICs (EKO-35 araC::mdtEF)	MIC (EKO-35 araC::mdtEF)	Fold change of MICs [1]	MIC [1]	also measured
COc1cccc2c1C(=O)c1c(O)c3c(c(O)c1C2=O)C[C@@](O)(C(=O)CO)C[C@@H]3O[C@H]1C[C@H](N)[C@H](O)[C@H](C)O1 [doxorubicin]	1 fold	1.56 µg/mL	128 fold	200 µg/mL	2 fold	3.12 µg/mL	1 fold	1.56 µg/mL	1 fold	1.56 µg/mL	64 fold	100 µg/mL	16 fold	25 µg/mL	–
C[C@@H]1O[C@@H]1P(=O)(O)O [fosfomycin]	1 fold	–	1 fold	1.56 µg/mL	1 fold	1.56 µg/mL	1 fold	1.56 µg/mL	1 fold	1.56 µg/mL	–	1.56 µg/mL	1 fold	1.56 µg/mL	–
NC[C@H]1O[C@H](O[C@H]2[C@H](O)[C@@H](O[C@H]3O[C@H](CO)[C@@H](O)[C@H](N)[C@H]3O)[C@H](N)C[C@@H]2N)[C@H](O)[C@@H](O)[C@@H]1O [kanamycin]	1 fold	1.56 µg/mL	1 fold	–	1 fold	–	1 fold	1.56 µg/mL	1 fold	–	1 fold	–	1 fold	1.56 µg/mL	–
CN(C)c1ccc(O)c2c1C[C@H]1C[C@H]3[C@H](N(C)C)C(O)=C(C(N)=O)C(=O)[C@@]3(O)C(O)=C1C2=O [minocycline]	1 fold	0.049 µg/mL	8 fold	0.391 µg/mL	2 fold	0.098 µg/mL	1 fold	0.049 µg/mL	1 fold	0.049 µg/mL	1 fold	0.049 µg/mL	1 fold	0.049 µg/mL	–
CCn1cc(C(=O)O)c(=O)c2ccc(C)nc21 [nalidixic acid]	1 fold	1.25 µg/mL	8 fold	10 µg/mL	2 fold	2.5 µg/mL	1 fold	1.25 µg/mL	1 fold	1.25 µg/mL	1 fold	1.25 µg/mL	2 fold	2.5 µg/mL	–
CCn1cc(C(=O)O)c(=O)c2cc(F)c(N3CCNCC3)cc21 [norfloxacin]	1 fold	0.02 µg/mL	4 fold	–	1 fold	0.02 µg/mL	–	0.01 µg/mL	1 fold	0.02 µg/mL	1 fold	0.02 µg/mL	2 fold	0.039 µg/mL	–
COc1ccc(C[C@H](N)C(=O)N[C@H]2[C@@H](O)[C@H](n3cnc4c(N(C)C)ncnc43)O[C@@H]2CO)cc1 [puromycin]	1 fold	1.56 µg/mL	64 fold	100 µg/mL	1 fold	1.56 µg/mL	1 fold	1.56 µg/mL	1 fold	1.56 µg/mL	1 fold	1.56 µg/mL	4 fold	6.25 µg/mL	–
CO[C@H]1/C=C/O[C@@]2(C)Oc3c(C)c(O)c4c(O)c(c(/C=N/N5CCN(C)CC5)c(O)c4c3C2=O)NC(=O)/C(C)=C\C=C\[C@H](C)[C@H](O)[C@@H](C)[C@@H](O)[C@@H](C)[C@H](OC(C)=O)[C@@H]1C [rifampicin]	–	3.12 µg/mL	–	6.25 µg/mL	–	6.25 µg/mL	–	6.25 µg/mL	–	6.25 µg/mL	–	6.25 µg/mL	–	3.12 µg/mL	–
C[C@H](CCC(=O)NCCS(=O)(=O)[O-])[C@H]1CC[C@H]2[C@@H]3CC[C@@H]4C[C@H](O)CC[C@]4(C)[C@H]3C[C@H](O)[C@]12C.[Na+] [sodium taurodeoxycholate]	2 fold	–	2 fold	–	2 fold	–	1 fold	–	2 fold	–	2 fold	–	2 fold	–	Minimum Inhibitory Concentration, EKO-35 araC::acrBD408A (EKO-35 araC::acrBD408A): 1000 µg/mL; Minimum Inhibitory Concentration, EKO-35 araC::acrB (EKO-35 araC::acrB): 1000 µg/mL; Minimum Inhibitory Concentration, EKO-35 araC::acrD (EKO-35 araC::acrD): 1000 µg/mL; Minimum Inhibitory Concentration, EKO-35 araC::emrKY (EKO-35 araC::emrKY): 500 µg/mL; Minimum Inhibitory Concentration, EKO-35 araC::mdtBC (EKO-35 araC::mdtBC): 1000 µg/mL; Minimum Inhibitory Concentration, EKO-35 araC::mdtEF (EKO-35 araC::mdtEF): 1000 µg/mL; Minimum Inhibitory Concentration, EKO-35 araC::mexCD [1]: 1000 µg/mL
CN(C)[C@@H]1C(O)=C(C(N)=O)C(=O)[C@@]2(O)C(O)=C3C(=O)c4c(O)cccc4[C@@](C)(O)[C@H]3C[C@@H]12 [tetracycline]	1 fold	0.195 µg/mL	4 fold	–	1 fold	0.195 µg/mL	1 fold	0.195 µg/mL	1 fold	0.195 µg/mL	1 fold	0.195 µg/mL	1 fold	0.195 µg/mL	–
CN[C@H](CC(C)C)C(=O)N[C@H]1C(=O)N[C@@H](CC(N)=O)C(=O)N[C@H]2C(=O)N[C@H]3C(=O)N[C@H](C(=O)N[C@H](C(=O)O)c4cc(O)cc(O)c4-c4cc3ccc4O)[C@H](O)c3ccc(c(Cl)c3)Oc3cc2cc(c3O[C@@H]2O[C@H](CO)[C@@H](O)[C@H](O)[C@H]2O[C@H]2C[C@](C)(N)[C@H](O)[C@H](C)O2)Oc2ccc(cc2Cl)[C@H]1O [vancomycin]	1 fold	200 µg/mL	1 fold	200 µg/mL	1 fold	200 µg/mL	1 fold	200 µg/mL	1 fold	200 µg/mL	1 fold	200 µg/mL	1 fold	200 µg/mL	–
deoxycholate	1 fold	–	4 fold	–	4 fold	–	1 fold	–	4 fold	–	4 fold	–	4 fold	–	Minimum Inhibitory Concentration, EKO-35 araC::acrBD408A (EKO-35 araC::acrBD408A): 375 µg/mL; Minimum Inhibitory Concentration, EKO-35 araC::acrB (EKO-35 araC::acrB): 1500 µg/mL; efflux pump-mediated resistance vs EKO-35 (EKO-35 araC::acrD; AcrD): confirmed; Minimum Inhibitory Concentration, EKO-35 araC::acrD (EKO-35 araC::acrD): 1500 µg/mL; efflux pump-mediated resistance vs EKO-35 (EKO-35 araC::emrKY; EmrKY): could not substantiate; Minimum Inhibitory Concentration, EKO-35 araC::emrKY (EKO-35 araC::emrKY): 375 µg/mL; efflux pump-mediated resistance vs EKO-35 (EKO-35 araC::mdtBC; MdtBC): conferred resistance; Minimum Inhibitory Concentration, EKO-35 araC::mdtBC (EKO-35 araC::mdtBC): 1500 µg/mL; Minimum Inhibitory Concentration, EKO-35 araC::mdtEF (EKO-35 araC::mdtEF): 1500 µg/mL; Minimum Inhibitory Concentration, EKO-35 araC::mexCD [1]: 1500 µg/mL

— patent US20230407243A1, “GENETIC PLATFORM TO INVESTIGATE THE FUNCTIONS OF BACTERIAL DRUG EFFLUX PUMPS” (priority 2022, published 2023)
